Test results as given in patent publication US8633236B2, “Compounds, compositions and methods” (Cytokinetics, Inc., priority 2002, dated 2014).

Tests used:
[1] = Potency comparison of separated enantiomers (test not specified); conditions: (R)- versus (S)-enantiomer separated on Chiralpak AD
Description: An enriched 3:1 R:S mixture of chromenone enantiomers was separated into its pure enantiomers by chiral chromatography with the following conditions: Column—Chiralpak AD, 250×4.6 mm (Diacel Inc.). Sample—22.5 mg/ml in 1:1 i-PrOH:hexanes. Conditions—40 min at isocratic 50% i-PrOH in Hexanes, (S)-enantiomer elutes at 18.35 min, (R)-enantiomer elutes at 26.87 min.

A549 cells = conditions: cited from earlier work

| Structure (SMILES) | relative potency of enantiomers [1] | GI50 (A549 cells) [µM] |
| --- | --- | --- |
| Cc1ccc(C(=O)N(CCCN)[C@@H](c2oc3cc(Cl)ccc3c(=O)c2Cc2ccccc2)C(C)C)cc1 (single isomer, unassigned) [Example 2 (R)-enantiomer] | significantly more potent than the (S)-enantiomer | – |
| O=c1[nH]cc(F)c(=O)[nH]1 [5-fluorouracil] | – | 1 |
| COc1cccc2c1C(=O)c1c(O)c3c(c(O)c1C2=O)C[C@@](O)(C(=O)CO)C[C@@H]3O[C@H]1C[C@H](N)[C@H](O)[C@H](C)O1 [doxorubicin] | – | 0.063 |
| NC(=O)NO [hydroxyurea] | – | 500 |
| CC(=O)O[C@H]1C(=O)[C@@]2(C)[C@H]([C@H](OC(=O)c3ccccc3)[C@]3(O)C[C@H](OC(=O)[C@H](O)[C@@H](NC(=O)c4ccccc4)c4ccccc4)C(C)=C1C3(C)C)[C@]1(OC(C)=O)CO[C@@H]1C[C@@H]2O [paclitaxel] | – | 0.004 |
